Measurements from patent US6737383B1, “Herbicidal oxadiazolidines” (priority 1999, dated 2004).

Columns and labels:
rice = assay: Test B flood test rice; format: in vivo, Oryza sativa
Method in brief: (§1)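 Flood test on plants grown to the 2-leaf stage; treated plants kept in greenhouse twelve to sixteen days, then visually rated against controls on a 0 (no effect) to 10 (complete control) scale.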

soybean = assay: Test B pre/postemergence soybean; format: in vivo, Glycine max
Method in brief: (§2)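 Herbicidal effect was estimated by eye on a ten-point control scale after plants spent twelve to sixteen days in a greenhouse following soil or foliar treatment. Foliar sprays targeted plants at one to four leaves; all doses were formulated in a non-phytotoxic solvent with surfactant.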

surinam grass = assay: Test B pre/postemergence surinam grass; format: in vivo, Brachiaria decumbens
Method in brief: as §2

morningglory = assay: Test B pre/postemergence morningglory; format: in vivo, Ipomoea hederacea
Method in brief: as §2

bamyardgrass = assay: Test B flood test barnyardgrass; format: in vivo, Echinochloa crus-galli
Method in brief: as §1

cocklebur = assay: Test B pre/postemergence cocklebur; format: in vivo, Xanthium strumarium
Method in brief: as §2

bedstraw = assay: Test B pre/postemergence bedstraw; format: in vivo, Galium aparine
Method in brief: as §2

sugar beet = assay: Test B pre/postemergence sugar beet; format: in vivo, Beta vulgaris
Method in brief: as §2

blackgrass = assay: Test B pre/postemergence blackgrass; format: in vivo, Alopecurus myosuroides
Method in brief: as §2

purple nutsedge = assay: Test B pre/postemergence purple nutsedge; format: in vivo, Cyperus rotundus
Method in brief: as §2

corn = assay: Test B pre/postemergence corn; format: in vivo, Zea mays
Method in brief: as §2

wild oat = assay: Test B pre/postemergence wild oat; format: in vivo, Avena fatua
Method in brief: as §2

pigweed = assay: Test B pre/postemergence pigweed; format: in vivo, Amaranthus retroflexus
Method in brief: as §2

smallflower flatsedge = assay: Test B flood test smallflower flatsedge; format: in vivo, Cyperus difformis
Method in brief: as §1

rape = assay: Test B pre/postemergence rape; format: in vivo, Brassica napus
Method in brief: as §2

velvetleaf = assay: Test B pre/postemergence velvetleaf; format: in vivo, Abutilon theophrasti
Method in brief: as §2

[1] = Postemergence (flood test species), Rate 125 g/ha, scale of 0 to 10 where 0 is no effect and 10 is complete control
[2] = Rate 31 g/ha, Postemergence section (flood test species), scale 0 to 10
[3] = Rate 62 g/ha, Postemergence section, flood test species, scale of 0 to 10 where 0 is no effect and 10 is complete control
[4] = Rate 250 g/ha, Postemergence (flood test), scale 0 to 10, 0 is no effect, 10 is complete control
[5] = Rate 250 g/ha, Pre-emergence, flood-test species, scale 0 to 10, 0 is no effect, 10 is complete control
[6] = Rate 500 g/ha, headed Pre-emergence (flood test species), scale 0 to 10 (0 no effect, 10 complete control)
[7] = Rate 1000 g/ha, Pre-emergence (as headed), scale 0 to 10
[8] = Rate 2000 g/ha, Pre-emergence (as headed), scale 0 to 10
[9] = Postemergence, Rate 125 g/ha, scale of 0 to 10 where 0 is no effect and 10 is complete control
[10] = Preemergence, Rate 62 g/ha, scale 0 to 10 (0 no effect, 10 complete control)
[11] = Preemergence, Rate 125 g/ha, 0 is no effect, 10 is complete control
[12] = Preemergence, Rate 250 g/ha, scale 0 to 10, 0 is no effect, 10 is complete control
[13] = Preemergence, Rate 500 g/ha, scale 0 to 10 (0 no effect, 10 complete control)
[14] = Rate 62 g/ha, Postemergence, scale of 0 to 10 where 0 is no effect and 10 is complete control
[15] = Rate 250 g/ha, Postemergence, scale 0 to 10, 0 is no effect, 10 is complete control
[16] = Rate 500 g/ha, Postemergence, scale 0 to 10

In the case of `C=C(C)Cn1c(=O)on(C(=O)N(c2ccc(F)cc2)C(C)C)c1=O` [Compound 139], the “Rice plant response rating” value (rice; [1]) was 0, the “Rice plant response rating” value (rice; [2]) was 0 and the “Rice plant response rating” value (rice; [3]) was 0. The “Plant response rating, Rice” value (rice; [4]) was 0, the “Rice plant response rating” value (rice; [5]) was 0 and the “Plant response rating, Rice” value (rice; [6]) was 0. For the same compound, the “Rice plant response rating” value (rice; [7]) was 0, the “Rice plant response rating” value (rice; [8]) was 0 and the “Soybean plant response rating” value (soybean; [9]) was 2. For the same compound, the “Soybean plant response rating” value (soybean; [10]) was 0, the “Soybean plant response rating (0 to 10 scale)” value (soybean; [11]) was 0 and the “Soybean plant response rating” value (soybean; [12]) was 0. The “Soybean plant response rating” value (soybean; [13]) was 2, the “Soybean plant response rating” value (soybean; [14]) was 1 and the “Plant response rating, Soybean” value (soybean; [15]) was 4. The “Soybean plant response rating” value (soybean; [16]) was 5, the “B. signalgrass plant response rating” value (surinam grass; [9]) was 2 and the “B. signalgrass plant response rating” value (surinam grass; [10]) was 0. For the same compound, the “B. signalgrass plant response rating (0 to 10 scale)” value (surinam grass; [11]) was 2, the “B. signalgrass plant response rating” value (surinam grass; [12]) was 8 and the “B. signalgrass plant response rating” value (surinam grass; [13]) was 9. For the same compound, the “B. signalgrass plant response rating” value (surinam grass; [14]) was 2, the “Plant response rating, B. signalgrass” value (surinam grass; [15]) was 6 and the “B. signalgrass plant response rating” value (surinam grass; Rate 500 g/ha, Postemergence, scale of 0 to 10 where 0 is no effect and 10 is complete control) was 7. The “Morningglory plant response rating” value (morningglory; [9]) was 5, the “Morningglory plant response rating” value (morningglory; [10]) was 0 and the “Morningglory plant response rating (0 to 10 scale)” value (morningglory; [11]) was 0. For the same compound, the “Morningglory plant response rating” value (morningglory; [12]) was 0, the “Morningglory plant response rating” value (morningglory; [13]) was 0 and the “Morningglory plant response rating” value (morningglory; [14]) was 3. The “Plant response rating, Morningglory” value (morningglory; [15]) was 6, the “Morningglory plant response rating” value (morningglory; [16]) was 9 and the “Barnyardgrass plant response rating” value (bamyardgrass; [1]) was 0. For the same compound, the “Barnyardgrass plant response rating” value (bamyardgrass; [2]) was 0, the “Barnyardgrass plant response rating” value (bamyardgrass; [3]) was 0 and the “Plant response rating, Barnyardgrass” value (bamyardgrass; [4]) was 0. The “Barnyardgrass plant response rating” value (bamyardgrass; [5]) was 0, the “Plant response rating, Barnyardgrass” value (bamyardgrass; [6]) was 0 and the “Barnyardgrass plant response rating” value (bamyardgrass; [7]) was 0. For the same compound, the “Barnyardgrass plant response rating” value (bamyardgrass; Rate 2000 g/ha, Pre-emergence (as headed), scale 0 to 10, 0 no effect, 10 complete control) was 6, the “Cocklebur plant response rating” value (cocklebur; [9]) was 0 and the “Cocklebur plant response rating” value (cocklebur; [10]) was 0. For the same compound, the “Cocklebur plant response rating (0 to 10 scale)” value (cocklebur; [11]) was 0, the “Cocklebur plant response rating” value (cocklebur; [12]) was 0 and the “Cocklebur plant response rating” value (cocklebur; [13]) was 0. The “Cocklebur plant response rating” value (cocklebur; [14]) was 0, the “Plant response rating, Cocklebur” value (cocklebur; [15]) was 2 and the “Cocklebur plant response rating” value (cocklebur; [16]) was 2. For the same compound, the “Bedstraw plant response rating” value (bedstraw; [9]) was 2, the “Bedstraw plant response rating” value (bedstraw; [10]) was 0 and the “Bedstraw plant response rating (0 to 10 scale)” value (bedstraw; [11]) was 0. For the same compound, the “Bedstraw plant response rating” value (bedstraw; [12]) was 2, the “Bedstraw plant response rating” value (bedstraw; [13]) was 9 and the “Plant response rating, Bedstraw” value (bedstraw; [15]) was 5. The “Bedstraw plant response rating” value (bedstraw; Rate 500 g/ha, Postemergence, scale 0 to 10, 0 no effect, 10 complete control) was 5, the “Sugarbeets plant response rating” value (sugar beet; [9]) was 0 and the “Sugarbeets plant response rating” value (sugar beet; [10]) was 3. For the same compound, the “Sugarbeets plant response rating (0 to 10 scale)” value (sugar beet; [11]) was 3, the “Sugarbeets plant response rating” value (sugar beet; [12]) was 4 and the “Sugarbeets plant response rating” value (sugar beet; [13]) was 6. The “Sugarbeets plant response rating” value (sugar beet; [14]) was 0, the “Plant response rating, Sugarbeets” value (sugar beet; [15]) was 2 and the “Sugarbeets plant response rating” value (sugar beet; [16]) was 2. For the same compound, the “Blackgrass plant response rating” value (blackgrass; [9]) was 2, the “Blackgrass plant response rating” value (blackgrass; [10]) was 4 and the “Blackgrass plant response rating (0 to 10 scale)” value (blackgrass; [11]) was 6. For the same compound, the “Blackgrass plant response rating” value (blackgrass; [12]) was 9, the “Blackgrass plant response rating” value (blackgrass; [13]) was 10 and the “Blackgrass plant response rating” value (blackgrass; [14]) was 2. The “Plant response rating, Blackgrass” value (blackgrass; [15]) was 7, the “Blackgrass plant response rating” value (blackgrass; [16]) was 8 and the “Nutsedge plant response rating” value (purple nutsedge; [9]) was 0. The “Nutsedge plant response rating” value (purple nutsedge; [10]) was 0, the “Nutsedge plant response rating (0 to 10 scale)” value (purple nutsedge; [11]) was 0 and the “Nutsedge plant response rating” value (purple nutsedge; [12]) was 0. For the same compound, the “Nutsedge plant response rating” value (purple nutsedge; [13]) was 0, the “Nutsedge plant response rating” value (purple nutsedge; [14]) was 0 and the “Plant response rating, Nutsedge” value (purple nutsedge; [15]) was 0. For the same compound, the “Nutsedge plant response rating” value (purple nutsedge; [16]) was 4, the “Corn plant response rating” value (corn; [9]) was 2 and the “Corn plant response rating” value (corn; [10]) was 0. The “Corn plant response rating (0 to 10 scale)” value (corn; [11]) was 0, the “Corn plant response rating” value (corn; [12]) was 4 and the “Corn plant response rating” value (corn; [13]) was 7. For the same compound, the “Corn plant response rating” value (corn; [14]) was 0, the “Plant response rating, Corn” value (corn; [15]) was 2 and the “Corn plant response rating” value (corn; [16]) was 2. For the same compound, the “Wild oats plant response rating” value (wild oat; [9]) was 2, the “Wild oats plant response rating” value (wild oat; [10]) was 3 and the “Wild oats plant response rating (0 to 10 scale)” value (wild oat; [11]) was 7. The “Wild oats plant response rating” value (wild oat; [12]) was 8, the “Wild oats plant response rating” value (wild oat; [13]) was 9 and the “Wild oats plant response rating” value (wild oat; [14]) was 2. For the same compound, the “Plant response rating, Wild oats” value (wild oat; [15]) was 4, the “Wild oats plant response rating” value (wild oat; [16]) was 4 and the “Redroot pigweed plant response rating” value (pigweed; [9]) was 3. For the same compound, the “Redroot pigweed plant response rating” value (pigweed; [10]) was 6, the “Redroot pigweed plant response rating (0 to 10 scale)” value (pigweed; [11]) was 8 and the “Redroot pigweed plant response rating” value (pigweed; [12]) was 10. The “Redroot pigweed plant response rating” value (pigweed; [13]) was 10, the “Redroot pigweed plant response rating” value (pigweed; [14]) was 3 and the “Plant response rating, Redroot pigweed” value (pigweed; [15]) was 4. For the same compound, the “Redroot pigweed plant response rating” value (pigweed; [16]) was 4, the “S. Flatsedge plant response rating” value (smallflower flatsedge; [1]) was 0 and the “S. Flatsedge plant response rating” value (smallflower flatsedge; Pre-emergence, Rate 1000 g/ha, scale 0 to 10 (0 no effect, 10 complete control)) was 0. The “S. Flatsedge plant response rating” value (smallflower flatsedge; [3]) was 0, the “Plant response rating, S. Flatsedge” value (smallflower flatsedge; [4]) was 0 and the “S. Flatsedge plant response rating” value (smallflower flatsedge; [5]) was 0. For the same compound, the “S. Flatsedge plant response rating” value (smallflower flatsedge; Rate 500 g/ha, Pre-emergence, flood test species, scale 0 to 10 (0 no effect, 10 complete control)) was 0, the “S. Flatsedge plant response rating” value (smallflower flatsedge; [8]) was 0 and the “Rape plant response rating” value (rape; [9]) was 2. The “Rape plant response rating” value (rape; [10]) was 0, the “Rape plant response rating (0 to 10 scale)” value (rape; [11]) was 0 and the “Rape plant response rating” value (rape; [12]) was 4. The “Rape plant response rating” value (rape; [13]) was 9, the “Rape plant response rating” value (rape; [14]) was 0 and the “Plant response rating, Rape” value (rape; [15]) was 2. For the same compound, the “Rape plant response rating” value (rape; [16]) was 4, the “Velvetleaf plant response rating” value (velvetleaf; [9]) was 4 and the “Velvetleaf plant response rating” value (velvetleaf; [10]) was 2. The “Velvetleaf plant response rating (0 to 10 scale)” value (velvetleaf; [11]) was 3, the “Velvetleaf plant response rating” value (velvetleaf; [12]) was 5 and the “Velvetleaf plant response rating” value (velvetleaf; [13]) was 7. The “Velvetleaf plant response rating” value (velvetleaf; [14]) was 2, the “Plant response rating, Velvetleaf” value (velvetleaf; [15]) was 5 and the “Velvetleaf plant response rating” value (velvetleaf; [16]) was 6.
